The source of these data is US7897602B2, “Indolinone compounds as kinase inhibitors” (Development Center for Biotechnology, priority 2009, dated 2011).

What all share (format): biochemical
One experiment concerns the target T1, Flt3 kinase (Homo sapiens, UniProt P36888).
T1 construct: recombinant N-terminal 6×His-tagged Flt3 kinase domain construct expressed from baculovirus; 6xHis (N); made in house
T1 sequence (P36888 610-943 limits assumed): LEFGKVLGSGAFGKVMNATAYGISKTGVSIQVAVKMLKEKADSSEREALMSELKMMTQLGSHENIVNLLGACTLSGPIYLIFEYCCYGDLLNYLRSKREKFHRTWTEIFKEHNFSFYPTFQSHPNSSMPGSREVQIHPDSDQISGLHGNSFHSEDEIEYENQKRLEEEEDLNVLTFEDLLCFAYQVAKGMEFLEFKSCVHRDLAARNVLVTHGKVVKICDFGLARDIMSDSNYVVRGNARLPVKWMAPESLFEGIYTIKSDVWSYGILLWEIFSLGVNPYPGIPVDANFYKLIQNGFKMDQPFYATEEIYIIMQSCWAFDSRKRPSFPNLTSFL
In words: Flt3 kinase assay (33P incorporation into Poly(Glu-Tyr)). The conditions noted are these: 100 nM test compound; read-out: Inhibition at 100 nM (%) Flt-3. In short, it runs like this:
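Baculovirus-expressed His-tagged Flt3 kinase domain (5 ng) with Poly(Glu-Tyr) 4:1 substrate, 100 μM ATP plus [33P]-γ-ATP, in MOPS pH 7.0 buffer, 30 min at 30 °C. Compound tested at a single 100 nM concentration; filter-bound radioactivity counted and percent inhibition calculated relative to DMSO control.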

A further experiment deals with T2, PDGFR-β kinase (Homo sapiens, UniProt P09619).
T2 construct: recombinant N-terminal 6×His-tagged PDGFR-β kinase domain construct expressed by baculovirus; 6xHis (N); made in house
T2 sequence (P09619 600-962 limits assumed): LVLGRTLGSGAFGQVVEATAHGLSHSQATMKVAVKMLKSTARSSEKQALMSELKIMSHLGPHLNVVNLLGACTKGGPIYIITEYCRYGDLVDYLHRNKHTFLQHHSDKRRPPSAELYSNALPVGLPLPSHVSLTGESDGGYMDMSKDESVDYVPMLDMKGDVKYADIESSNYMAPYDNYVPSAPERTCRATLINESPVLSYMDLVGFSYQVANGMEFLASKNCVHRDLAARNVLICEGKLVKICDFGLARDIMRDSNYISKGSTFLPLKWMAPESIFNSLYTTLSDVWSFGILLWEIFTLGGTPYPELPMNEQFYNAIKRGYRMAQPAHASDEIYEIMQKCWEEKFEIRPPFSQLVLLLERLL
Kind of experiment: PDGFR-β kinase assay (33P incorporation into Poly(Glu-Tyr)). The following applies: 500 nM test compound. The essentials:
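His-tagged PDGFR-β kinase domain (55 ng) with Poly(Glu-Tyr) 4:1, 30 μM ATP plus [33P]-γ-ATP, pH 7.0 MnCl2 buffer, and 500 nM compound for 30 min at 30° C. Filter-bound radioactivity counted; inhibition computed relative to DMSO control.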

Another experiment deals with T3, c-Met kinase (Homo sapiens, UniProt P08581).
T3 construct: recombinant N-terminal 6×His-tagged c-Met kinase domain construct expressed from baculovirus; 6xHis (N); made in house
T3 sequence (P08581 1078-1345 limits assumed): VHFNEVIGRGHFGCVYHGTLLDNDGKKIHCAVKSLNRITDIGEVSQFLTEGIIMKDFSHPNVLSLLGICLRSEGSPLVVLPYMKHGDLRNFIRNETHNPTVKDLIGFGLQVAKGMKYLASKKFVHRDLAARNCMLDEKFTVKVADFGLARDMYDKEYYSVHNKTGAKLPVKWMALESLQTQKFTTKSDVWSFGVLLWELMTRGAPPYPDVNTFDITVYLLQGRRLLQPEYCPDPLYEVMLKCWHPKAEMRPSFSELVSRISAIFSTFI
Kind of experiment: c-Met kinase assay (33P incorporation into Poly(Glu-Tyr)). The conditions noted are these: 500 nM test compound. In short, it runs like this:
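Single-concentration test (500 nM compound) at 30° C for 30 min, pH 7.0 MOPS buffer with 100 μM ATP and [33P]-γ-ATP. Enzyme was baculovirus-expressed 6×His c-Met kinase domain (5 ng), substrate Poly(Glu-Tyr) 4:1. Inhibition percentage derived from filter-bound counts relative to DMSO control.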

A further experiment has as its target T4, Aurora B kinase (Homo sapiens, UniProt Q96GD4).
T4 construct: purchased Cell signaling
In words: Aurora B kinase assay ([γ-33P]ATP, CHOCKtide substrate). The following applies: 1.0 μM test compound. In short, it runs like this: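 Radiometric filter-binding format: 33P incorporation into CHOCKtide counted after acid stop and filtration. Reactions ran 30 min at 33 °C, Aurora A with 10 μM ATP, Aurora B with 40 μM ATP. IC50 taken as concentration giving half-maximal kinase inhibition.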

T4 sequence (Q96GD4 whole entry): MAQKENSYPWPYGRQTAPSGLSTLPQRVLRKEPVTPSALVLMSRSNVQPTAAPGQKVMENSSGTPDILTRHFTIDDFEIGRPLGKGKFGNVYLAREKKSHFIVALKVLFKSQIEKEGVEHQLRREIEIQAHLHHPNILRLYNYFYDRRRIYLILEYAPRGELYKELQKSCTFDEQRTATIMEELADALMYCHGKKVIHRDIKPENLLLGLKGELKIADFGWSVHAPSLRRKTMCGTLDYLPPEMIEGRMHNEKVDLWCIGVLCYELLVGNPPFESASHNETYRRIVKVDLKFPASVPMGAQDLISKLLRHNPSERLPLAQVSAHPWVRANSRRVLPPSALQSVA

On to `CCOC(=O)CCc1c(/C=C2\C(=O)Nc3cc(F)ccc32)[nH]c2c1C(=O)CCC2` [DCB-70122, (Z)-6-fluoro-3-((3-(3-ethoxy-3-oxopropyl)-4-oxo-4,5,6,7-tetrahydro-1H-indol-2-yl)methylene)indolin-2-one], for which the inhibition at 0.1 µM on Flt3 kinase is 82.2%. The inhibition at 0.5 µM at PDGFR-β kinase came to 64.3%; against c-Met kinase, 19.1%. Moreover, the inhibition at 1 µM against Aurora B kinase worked out at 8.3%.

With `O=C(O)CCc1c(/C=C2\C(=O)Nc3cc(F)ccc32)[nH]c2c1C(=O)CCC2` [DCB-70123, (Z)-6-fluoro-3-((3-carboxyethyl-4-oxo-4,5,6,7-tetrahydro-1H-indol-2-yl)methylene)indolin-2-one], the inhibition at 0.1 µM at Flt3 kinase came out at 61.1%. Moreover, the inhibition at 0.5 µM at PDGFR-β kinase amounted to 67.2%; on c-Met kinase it was 8.3%. For the same molecule, the inhibition at 1 µM at Aurora B kinase worked out at 13.3%.

For the molecule `CCN(CC)C(=O)CCc1c(/C=C2\C(=O)Nc3ccc(F)cc32)[nH]c2c1C(=O)CCC2` [DCB-70124, (Z)-N,N-diethyl-3-(2-((5-fluoro-2-oxoindolin-3-ylidene)methyl)-4-oxo-4,5,6,7-tetrahydro-1H-indol-3-yl)propanamide], on Flt3 kinase, the inhibition at 0.1 µM came to 88.6%. Further, the figures for the inhibition at 0.5 µM on PDGFR-β kinase and on c-Met kinase were 64.3% and -0.8%, respectively. In addition, at Aurora B kinase, the inhibition at 1 µM was 1.4%.

Turning to `O=C1Nc2ccc(F)cc2/C1=C/c1[nH]c2c(c1CCC(=O)N1CCOCC1)C(=O)CCC2` [DCB-70125, (Z)-5-fluoro-3-((3-(3-morpholino-3-oxopropyl)-4-oxo-4,5,6,7-tetrahydro-1H-indol-2-yl)methylene)indolin-2-one], the inhibition at 0.1 µM on Flt3 kinase is 94.6%. For the same molecule, the inhibition at 0.5 µM turned out to be 78.2% against PDGFR-β kinase and 2.9% against c-Met kinase. The inhibition at 1 µM on Aurora B kinase is -0.1%.

Turning to `CCOC(=O)CCc1c(/C=C2\C(=O)Nc3cc(-c4ccc5c(c4)OCO5)ccc32)[nH]c2c1C(=O)CCC2` [DCB-70128, (Z)-ethyl 3-(2-((6-(benzo[d][1,3]dioxol-5-yl)-2-oxoindolin-3-ylidene)methyl)-4-oxo-4,5,6,7-tetrahydro-1H-indol-3-yl)propanoate], the inhibition at 0.1 µM at Flt3 kinase stood at 3.2%. Moreover, the results for the inhibition at 0.5 µM against PDGFR-β kinase and at c-Met kinase were 9% and 12.5%, respectively. At Aurora B kinase, the inhibition at 1 µM was determined as 13.5%.

As for `CCOC(=O)CCc1c(/C=C2\C(=O)Nc3ccc(NC(=O)Nc4cccc5ccccc45)cc32)[nH]c2c1C(=O)CCC2` [DCB-70129, (Z)-ethyl 3-(2-((5-(3-naphthalen-1-ylureido)-2-oxoindolin-3-ylidene)methyl)-4-oxo-4,5,6,7-tetrahydro-1H-indol-3-yl)propanoate], the inhibition at 0.1 µM on Flt3 kinase amounted to 12.3%. For the same molecule, the inhibition at 0.5 µM at PDGFR-β kinase stood at 1.4%; against c-Met kinase, 5%. The inhibition at 1 µM against Aurora B kinase came out at 5.8%.

As to `CCOC(=O)CCc1c(/C=C2\C(=O)Nc3cc(Br)ccc32)[nH]c2c1C(=O)CCC2` [DCB-70130, (Z)-ethyl 3-(2-((6-bromo-2-oxoindolin-3-ylidene)methyl)-4-oxo-4,5,6,7-tetrahydro-1H-indol-3-yl)propanoate], the inhibition at 0.1 µM on Flt3 kinase stood at 89.1%. Further, the inhibition at 0.5 µM against PDGFR-β kinase was 84.9%; at c-Met kinase it was 4.2%. At Aurora B kinase, the inhibition at 1 µM amounted to 12.2%.

On to `CCOC(=O)CCc1c(/C=C2\C(=O)Nc3ccc(NCc4ccccc4)cc32)[nH]c2c1C(=O)CCC2` [DCB-70131, (Z)-ethyl 3-(2-((5-(benzylamino)-2-oxoindolin-3-ylidene)methyl)-4-oxo-4,5,6,7-tetrahydro-1H-indol-3-yl)propanoate], for which, at Flt3 kinase, the inhibition at 0.1 µM came out at 85.1%. For the same molecule, the inhibition at 0.5 µM at PDGFR-β kinase was 40.8%; at c-Met kinase, -2.1%. On Aurora B kinase, the inhibition at 1 µM was 44.5%.

Consider `O=C(O)CCc1c(/C=C2\C(=O)Nc3ccc(NCc4ccccc4)cc32)[nH]c2c1C(=O)CCC2` [DCB-70132, (Z)-3-(2-((5-(benzylamino)-2-oxoindolin-3-ylidene)methyl)-4-oxo-4,5,6,7-tetrahydro-1H-indol-3-yl)propanoic acid], for which, at Flt3 kinase, the inhibition at 0.1 µM was determined as 3.7%. Moreover, the inhibition at 0.5 µM on PDGFR-β kinase was found to be 29.3%; against c-Met kinase, 13.7%. Besides, the inhibition at 1 µM against Aurora B kinase stood at 26.9%.

For the molecule `O=C(O)CCc1c(/C=C2\C(=O)Nc3cc(Br)ccc32)[nH]c2c1C(=O)CCC2` [DCB-70133, (Z)-3-(2-((6-bromo-2-oxoindolin-3-ylidene)methyl)-4-oxo-4,5,6,7-tetrahydro-1H-indol-3-yl)propanoic acid], at Flt3 kinase, the inhibition at 0.1 µM amounted to 6.1%. The inhibition at 0.5 µM at PDGFR-β kinase was 8.3%; against c-Met kinase, 3.3%. In addition, the inhibition at 1 µM against Aurora B kinase was determined as 6%.

For `CCOC(=O)CCc1c(/C=C2\C(=O)Nc3ccc(NC(=O)Nc4ccccc4)cc32)[nH]c2c1C(=O)CCC2` [DCB-70134, (Z)-ethyl 3-(4-oxo-2-((2-oxo-5-(3-phenylureido)indolin-3-ylidene)methyl)-4,5,6,7-tetrahydro-1H-indol-3-yl)propanoate], the inhibition at 0.1 µM at Flt3 kinase worked out at 40.9%. Besides, the inhibition at 0.5 µM at PDGFR-β kinase was 24%; against c-Met kinase it was -0.3%. Besides, on Aurora B kinase, the inhibition at 1 µM is 5.7%.

As to `CCOC(=O)CCc1c(/C=C2\C(=O)Nc3ccc(NC(=O)Nc4ccc(Br)cc4)cc32)[nH]c2c1C(=O)CCC2` [DCB-70135, (Z)-ethyl 3-(2-((5-(3-(4-bromophenyl)ureido)-2-oxoindolin-3-ylidene)methyl)-4-oxo-4,5,6,7-tetrahydro-1H-indol-3-yl)propanoate], the inhibition at 0.1 µM at Flt3 kinase worked out at 20.3%. For the same molecule, the inhibition at 0.5 µM on PDGFR-β kinase was 12%; on c-Met kinase, -3.7%. The inhibition at 1 µM against Aurora B kinase is -6.6%.

As to `CCOC(=O)CCc1c(/C=C2\C(=O)Nc3ccc(NC(=O)Nc4ccc(F)cc4)cc32)[nH]c2c1C(=O)CCC2` [DCB-70136, (Z)-ethyl 3-(2-((5-(3-(4-fluorophenyl)ureido)-2-oxoindolin-3-ylidene)methyl)-4-oxo-4,5,6,7-tetrahydro-1H-indol-3-yl)propanoate], the inhibition at 0.1 µM at Flt3 kinase worked out at 39.3%. For the same molecule, the inhibition at 0.5 µM against PDGFR-β kinase is 21.4%; against c-Met kinase it was -7.7%. Moreover, the inhibition at 1 µM against Aurora B kinase came to 0.1%.

With `CCOC(=O)CCc1c(/C=C2\C(=O)Nc3ccc(NC(=O)Nc4ccc(Cl)c(C(F)(F)F)c4)cc32)[nH]c2c1C(=O)CCC2` [DCB-70137, (Z)-ethyl 3-(2-((5-(3-(4-chloro-3-(trifluoromethyl)phenyl)ureido)-2-oxoindolin-3-ylidene)methyl)-4-oxo-4,5,6,7-tetrahydro-1H-indol-3-yl)propanoate], the inhibition at 0.1 µM on Flt3 kinase was 33.8%. Also, the inhibition at 0.5 µM on PDGFR-β kinase and against c-Met kinase was 11.5% throughout. For the same molecule, the inhibition at 1 µM against Aurora B kinase was -3.3%.

Turning to `CCOC(=O)CCc1c(/C=C2\C(=O)Nc3ccc(NC(=O)c4ccc([N+](=O)[O-])cc4)cc32)[nH]c2c1C(=O)CCC2` [DCB-70140, (Z)-ethyl 3-(2-((5-(4-nitrobenzamido)-2-oxoindolin-3-ylidene)methyl)-4-oxo-4,5,6,7-tetrahydro-1H-indol-3-yl)propanoate], the inhibition at 0.1 µM at Flt3 kinase amounted to 5.5%. Also, the inhibition at 0.5 µM at PDGFR-β kinase stood at 7.5%; against c-Met kinase it was 9.3%. Moreover, the inhibition at 1 µM against Aurora B kinase amounted to 5.2%.

The inhibition is the change of the read-out against control, counted positive when it falls.
